Data set [1] in a line: Assay for determination of apparent permeability (Papp) in LLC-PK1 cells. Particulars: pig, t=3 h, average of A to B and B to A. In kind it is in vitro ADME. Here is the method:
Bi-directional transport was evaluated in LLC-PK1 cells in order to determine apparent permeability (Papp). LLC-PK1 cells can form a tight monolayer and therefore can be used to assess vectorial transport of compounds from basolateral to apical (B→A) and from apical to basolateral (A→B).
To determine Papp, LLC-PK1 cells were cultured in 96-well transwell culture plates (Millipore). Solutions containing the test compounds (1 μM) were prepared in Hank's Balanced Salt Solution with 10 mM HEPES. Substrate solution (150 μL) was added to either the apical (A) or the basolateral (B) compartment of the culture plate, and buffer (150 μL) was added to the compartment opposite to that containing the compound. At t=3 h, 50 μL samples were removed from both sides of monolayers dosed with test compound and placed in 96 well plates, scintillant (200 μL) or internal standard (100 μL labetolol 1 μM) was added to the samples and concentration was determined by liquid scintillation counting in a MicroBeta Wallac Trilux scintillation counter (Perkin Elmer Life Sciences, Boston, Mass.) or by LCMS/MS (Applied Biosystems SCIEX API 5000 triple quadruple mass spectrometer). [^3H]Verapamil (1 μM) was used as the positive control. The experiment was performed in triplicate.
[formula] Where: Volume of Receptor Chamber was 0.15 mL; Area of membrane was 0.11 cm^2; the Initial Concentration is the sum of the concentration measured in the donor plus concentration measured in receiver compartments at t=3 h; Δ in Concentration is concentration in the receiver compartment at 3 h; and Δ in Time is the incubation time (3×60×60=10800 s). Papp was expressed as 10^−6 cm/s.

The target in data set [2] is human O-GlcNAcase (Homo sapiens (Human), UniProt O60502). Put plainly: Assay for determination of KI values for inhibition of O-GlcNAcase activity (fluorescence-based hOGA). In kind it is biochemical. The following applies: purified human O-GlcNAcase, 4-Methylumbelliferyl N-acetyl-β-D-glucosaminide substrate, pH 7.0, Cheng-Prusoff. Here is the method: Experimental Procedure for Kinetic Analyses: Enzymatic reactions were carried out in a reaction containing 50 mM NaH2PO4, 100 mM NaCl and 0.1% BSA (pH 7.0) using 2 mM 4-Methylumbelliferyl N-acetyl-β-D-glucosaminide dihydrate (Sigma M2133) dissolved in ddH2O, as a substrate. The amount of purified human O-GlcNAcase enzyme used in the reaction was 0.7 nM. Test compound of varying concentrations was added to the enzyme prior to initiation of the reaction. The reaction was performed at room temperature in a 96-well plate and was initiated with the addition of substrate. […] The slope of product production was determined for each concentration of compound tested and plotted, using standard curve fitting algorithms for sigmoidal dose response curves. The values for a four parameter logistic curve fit of the data were determined.
human O-GlcNAcase, sequence (O60502 whole entry): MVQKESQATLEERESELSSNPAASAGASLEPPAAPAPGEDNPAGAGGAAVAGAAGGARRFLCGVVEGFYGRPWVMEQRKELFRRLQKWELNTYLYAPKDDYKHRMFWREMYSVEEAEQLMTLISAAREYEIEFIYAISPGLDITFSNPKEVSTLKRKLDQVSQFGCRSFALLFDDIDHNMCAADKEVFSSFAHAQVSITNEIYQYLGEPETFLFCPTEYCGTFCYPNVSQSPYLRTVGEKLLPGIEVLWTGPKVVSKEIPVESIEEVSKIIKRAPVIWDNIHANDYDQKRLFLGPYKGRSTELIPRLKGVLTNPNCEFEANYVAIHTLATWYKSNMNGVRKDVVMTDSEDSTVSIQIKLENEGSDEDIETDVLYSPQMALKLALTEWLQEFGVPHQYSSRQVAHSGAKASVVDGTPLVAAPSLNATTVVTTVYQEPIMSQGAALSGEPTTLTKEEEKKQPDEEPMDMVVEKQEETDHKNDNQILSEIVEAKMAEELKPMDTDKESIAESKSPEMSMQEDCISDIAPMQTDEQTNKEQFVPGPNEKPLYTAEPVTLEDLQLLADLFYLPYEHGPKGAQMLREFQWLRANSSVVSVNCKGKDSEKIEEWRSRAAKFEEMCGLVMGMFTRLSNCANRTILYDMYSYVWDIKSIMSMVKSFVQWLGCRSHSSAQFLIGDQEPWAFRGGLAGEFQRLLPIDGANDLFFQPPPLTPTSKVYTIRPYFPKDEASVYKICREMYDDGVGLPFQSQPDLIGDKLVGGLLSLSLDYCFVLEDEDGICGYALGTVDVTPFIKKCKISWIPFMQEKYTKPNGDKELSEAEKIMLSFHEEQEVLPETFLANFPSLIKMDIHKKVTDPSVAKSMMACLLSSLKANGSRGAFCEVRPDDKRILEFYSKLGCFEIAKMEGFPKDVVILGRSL

Data set [3] addresses O-GlcNAcase (Rattus norvegicus (Rat), UniProt Q8VIJ5). In words: Cell-based ELISA for cellular activity of O-GlcNAcase inhibitors (O-GlcNAcylated protein, RL-2 antibody). The following applies: rat PC-12 cells, 24 h treatment, O-GlcNAcylated protein by RL-2 ELISA. Here is the method: Inhibition of O-GlcNAcase, which removes O-GlcNAc from cellular proteins, results in an increase in the level of O-GlcNAcylated protein in cells. An increase in O-GlcNAcylated protein can be measured by an antibody, such as RL-2, that binds to O-GlcNAcylated protein. The amount of O-GlcNAcylated protein:RL2 antibody interaction can be measured by enzyme linked immunosorbant assay (ELISA) procedures.
Compounds to be tested were dissolved in DMSO, either 2 or 10 mM stock solution, and then diluted with DMSO and water in a two-step process using a Tecan workstation. […] To prepare a cell lysate, the media from compound treated cells was removed, the cells were washed once with phosphate buffered saline (PBS) and then lysed for 5 minutes at room temperature in 50 μL of Phosphosafe reagent (Novagen Inc, Madison, Wis.) with protease inhibitors and PMSF. The cell lysate was collected and transferred to a new plate, which was then either coated to assay plates directly or frozen −80° C. until used in the ELISA procedure. If desired, the total protein concentration of samples was determined using 20 μL of the sample using the BCA method.
The ELISA portion of the assay was performed in a black Maxisorp 96-well plate that was coated overnight at 4° C. with 100 μL/well of the cell lysate (1:10 dilution of the lysate with PBS containing protease inhibitors, phosphatase inhibitors, and PMSF). The following day the wells were washed 3 times with 300 μL/well of Wash buffer (Tris-buffered saline with 0.1% Tween 20).
The amount of O-GlcNAcylated protein, as detected by the ELISA assay, was plotted for each concentration of test compound using standard curve fitting algorithms for sigmoidal dose response curves. The values for a four parameter logistic curve fit of the data were determined, with the inflection point of the curve being the potency value for the test compound.
For orientation: ELISA stands for enzyme-linked immunosorbent assay.

7 molecules from US9199949B2, “Selective glycosidase inhibitors and uses thereof” (Alectos Therapeutics Inc., priority 2011, dated 2015) can be followed below.

Molecules are shown by their SMILES.

O-GlcNAcase, sequence (Q8VIJ5 whole entry): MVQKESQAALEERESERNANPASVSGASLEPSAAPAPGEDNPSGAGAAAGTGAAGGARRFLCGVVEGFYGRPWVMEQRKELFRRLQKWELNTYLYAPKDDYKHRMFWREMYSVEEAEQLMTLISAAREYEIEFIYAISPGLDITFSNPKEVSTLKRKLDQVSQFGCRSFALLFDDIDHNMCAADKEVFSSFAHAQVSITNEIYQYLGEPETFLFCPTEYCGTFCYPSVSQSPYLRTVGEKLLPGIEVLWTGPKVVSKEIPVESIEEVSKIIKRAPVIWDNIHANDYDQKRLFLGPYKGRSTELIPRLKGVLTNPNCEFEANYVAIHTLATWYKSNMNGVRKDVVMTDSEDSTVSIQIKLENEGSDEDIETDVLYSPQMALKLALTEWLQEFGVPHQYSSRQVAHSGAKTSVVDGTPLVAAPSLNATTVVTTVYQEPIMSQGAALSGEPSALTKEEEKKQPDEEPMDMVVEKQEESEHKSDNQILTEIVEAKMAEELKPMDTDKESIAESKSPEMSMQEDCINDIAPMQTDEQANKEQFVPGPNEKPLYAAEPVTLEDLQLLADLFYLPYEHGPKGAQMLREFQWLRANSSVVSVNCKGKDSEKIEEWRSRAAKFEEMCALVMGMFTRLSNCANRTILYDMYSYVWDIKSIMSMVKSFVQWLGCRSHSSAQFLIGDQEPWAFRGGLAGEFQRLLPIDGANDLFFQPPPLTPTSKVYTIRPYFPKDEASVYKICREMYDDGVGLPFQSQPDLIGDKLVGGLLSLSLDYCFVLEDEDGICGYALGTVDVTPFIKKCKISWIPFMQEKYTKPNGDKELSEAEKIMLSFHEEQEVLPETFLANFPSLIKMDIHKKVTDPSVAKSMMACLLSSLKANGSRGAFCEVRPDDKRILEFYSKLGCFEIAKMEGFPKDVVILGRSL

As to `CNC1=N[C@@H]2[C@@H](O)[C@H](O)[C@@H](CF)C[C@@H]2O1` [Example 2, (3aR,4R,5R,6S,7aS)-6-(fluoromethyl)-2-(methylamino)-3a,4,5,6,7,7a-hexahydrobenzo[d]oxazole-4,5-diol], the Papp at 3 h, 1 μM in data set [1] came to 6.5 ×10⁻⁶ cm/s.

Turning to `O[C@@H]1[C@@H](CF)C[C@@H]2OC(N3CCC3)=N[C@@H]2[C@H]1O` [Example 4, (3aR,4R,5R,6S,7aS)-2-(azetidin-1-yl)-6-(fluoromethyl)-3a,4,5,6,7,7a-hexahydrobenzo[d]oxazole-4,5-diol], the Papp at 3 h, 1 μM in data set [1] stood at 5.1 ×10⁻⁶ cm/s. In data set [2], the Ki came out at 1.1 nM. This molecule returned an EC50 in data set [3] of 5.2 nM.

For `O[C@H]1[C@H](O)[C@@H](C(F)F)C[C@@H]2OC(N3CCC3)=N[C@H]12` [Example 6, (3aR,4R,5R,6S,7aS)-2-(azetidin-1-yl)-6-(difluoromethyl)-3a,4,5,6,7,7a-hexahydrobenzo[d]oxazole-4,5-diol], the Papp at 3 h, 1 μM in data set [1] amounted to 2.8 ×10⁻⁶ cm/s. The Ki in data set [2] was found to be 0.7 nM. In data set [3], this molecule had an EC50 of 5.1 nM.

With `CNC1=N[C@@H]2[C@@H](O)[C@H](O)[C@@H](C(F)F)C[C@@H]2O1` [Example 8, (3aR,4R,5R,6S,7aS)-6-(difluoromethyl)-2-(methylamino)-3a,4,5,6,7,7a-hexahydrobenzo[d]oxazole-4,5-diol], in data set [1], the Papp at 3 h, 1 μM was found to be 2.7 ×10⁻⁶ cm/s. Also, affinity in data set [2] was put at a Ki of 1.4 nM. Besides, the EC50 in data set [3] was found to be 4.7 nM.

Molecule `OC[C@H]1C[C@@H]2OC(N3CCC3)=N[C@@H]2[C@H](F)[C@@H]1O` [Example 10, (3aS,4S,5R,6R,7aS)-2-(azetidin-1-yl)-4-fluoro-6-(hydroxymethyl)-3a,4,5,6,7,7a-hexahydrobenzo[d]oxazol-5-ol] had a Ki in data set [2] of 7 nM.

For the molecule `CNC1=N[C@@H]2[C@H](F)[C@H](O)[C@@H](CO)C[C@@H]2O1` [Example 12, (3aS,4S,5R,6R,7aS)-4-fluoro-6-(hydroxymethyl)-2-(methylamino)-3a,4,5,6,7,7a-hexahydrobenzo[d]oxazol-5-ol], in data set [1], the Papp at 3 h, 1 μM is 2.2 ×10⁻⁶ cm/s. In data set [2], this molecule had a Ki of 8.6 nM.

For `O[C@H]1[C@@H](F)[C@H]2N=C(N3CCC3)O[C@H]2C[C@@H]1C(F)F` [Example 15, (3aS,4S,5R,6S,7aS)-2-(azetidin-1-yl)-6-(difluoromethyl)-4-fluoro-3a,4,5,6,7,7a-hexahydrobenzo[d]oxazol-5-ol], the Papp at 3 h, 1 μM in data set [1] is 6.5 ×10⁻⁶ cm/s. Moreover, the affinity in data set [2] corresponds to a Ki of 20.5 nM.

In general, Papp refers to the rate of passage across a membrane or cell layer, normalised by area and donor concentration. As a reminder, the Ki is a measure of affinity in units of concentration, obtained from inhibition or displacement. Low values mean a stronger hold on the target, high ones a looser hold on the target. What is called EC50 is the concentration that produces a half-maximal response.
